Legend:
[1] = instrument: DT, single field, calibrated with Agilent tune mix (Agilent)
[2] = instrument: DT, stepped-field

Row | Structure (SMILES) | collision cross section (N2) ([2]; [M+Na]+) [Å²] | collision cross section (N2) ([2]; [M+H]+) [Å²] | also measured
1 | O=c1[nH]cc(CO)c(=O)[nH]1 [5-Hydroxymethyluracil] | 142.06 |  | collision cross section (N2) ([1]; [M-H]-): 119.21 Å²
2 | Cc1cn([C@@H]2O[C@H](CO)[C@@H](O)[C@H]2O)c(=O)nc1N [5-Methylcytidine] | 168.97 | 157.51 | collision cross section (N2) ([1]; [M+H]+): 157.4 Å²; collision cross section (N2) ([1]; [M-H]-): 152.63 Å²
3 | CN1c2c([nH]c(N)nc2=O)NCC1CNc1ccc(C(=O)N[C@H](CCC(=O)O)C(=O)O)cc1 (stereo partly specified) [5-Methyltetrahydrofolate] | 200.04 | 196.99 | collision cross section (N2) ([1]; [M+H]+): 196.4 Å²; collision cross section (N2) ([1]; [M+Na-2H]-): 201.03 Å²
4 | NCCCCN=C(N)N [Agmatine] |  | 129.96 | collision cross section (N2) ([1]; [M+H]+): 128.2 Å²
5 | COc1cc(-c2oc3cc(O)cc(O)c3c(=O)c2O)ccc1O [Isorhamnetin] | 195.91 | 172.96 | 
6 | N[C@@H](CCCC(=O)O)C(=O)O [L-2-Aminoadipic Acid] | 142.23 | 136.36 | 
7 | NC(=O)C[C@H](N)C(=O)O [L-Asparagine] | 131.94 | 131.54 | 
8 | N[C@@H](CS)C(=O)O [L-Cysteine] | 151.34 | 149.57 | 
9 | CS(=N)(=O)CC[C@H](N)C(=O)O (stereo partly drawn) [L-Methionine sulfoximine] | 143.1 | 139.3 | 
10 | N[C@@H](Cn1ccc(=O)c(O)c1)C(=O)O [L-Mimosine] |  | 143.47 | 
11 | O=C(CO)[C@@H](O)[C@@H](O)CO [L-Ribulose] | 132.81 |  | 
12 | O=C(O)[C@H](O)[C@@H](O)CO [L-Threonic Acid] | 136.93 |  | 
13 | N[C@H](CO)Cc1cnc[nH]1 [L-histidinol] | 136.57 | 130.9 | 
14 | CCCCCCCCCCCCC(=O)OCC(O)COP(=O)([O-])OCC[N+](C)(C)C (stereo unspecified) [LPC 13:0] | 225.41 | 220.71 | 
15 | CCCCCCCCCCCCCC(=O)OC[C@@H](O)COP(=O)([O-])OCC[N+](C)(C)C [LPC 14:0] | 225.77 | 222 | 
16 | CCCCCCCCCCCCCCCCCCC(=O)OCC(O)COP(=O)([O-])OCC[N+](C)(C)C (stereo unspecified) [LPC 19:0] | 244.1 |  | 
17 | CCCCCCCCCCCCCCCCCCCCCCCC(=O)OC[C@@H](O)COP(=O)([O-])OCC[N+](C)(C)C [LPC(24:0)] | 262.43 |  | 
18 | CC(=O)N[C@H]1[C@H](O[C@H]2[C@@H](O)[C@@H](CO)O[C@@H](O[C@H]3[C@H](O)[C@@H](O)C(O)O[C@@H]3CO)[C@@H]2O)O[C@H](CO)[C@@H](O)[C@@H]1O[C@@H]1O[C@H](CO)[C@H](O)[C@H](O)[C@H]1O (stereo partly specified) [Lacto-N-Tetraose] | 239.18 |  | 
19 | CC(=O)NC1[C@H](OC2[C@@H](O)[C@H](OC([C@H](O)CO)[C@@H](O)[C@@H](O)C=O)O[C@H](COC3O[C@H](CO)[C@@H](O[C@@H]4O[C@H](CO)[C@H](O)[C@H](O)[C@H]4O)[C@H](O)[C@H]3NC(C)=O)[C@H]2O)O[C@H](CO)[C@@H](O)[C@@H]1OC1O[C@H](CO)[C@H](O)[C@H](O)[C@H]1O (stereo partly specified) [Lacto-N-hexaose] | 301.6 |  | 

Row | Structure (SMILES) | collision cross section (N2) ([2]; [M+Na]+) [Å²] | collision cross section (N2) ([2]; [M+H]+) [Å²] | also measured
20 | CCCCC/C=C\C\C=C/C=C/C=C/[C@@H](SC[C@H](N)C(=O)NCC(=O)O)[C@@H](O)CCCC(=O)O [Leukotriene D4] | 238.7 | 234.1 | 
21 | CCCCC/C=C\C\C=C/C=C/C=C/[C@@H](SC[C@H](N)C(=O)O)[C@@H](O)CCCC(=O)O [Leukotriene E4] | 227.9 | 213.2 | 
22 | CCCCCCCCCCCCCCCCCCCCCCCC(=O)O [Lignoceric Acid] | 216.86 |  | 
23 | C=CC(C)(O)CCC=C(C)C (stereo unspecified) [Linalool] | 140.55 |  | 
24 | COC(=O)C1=CO[C@@H](O[C@@H]2O[C@H](CO)[C@@H](O)[C@H](O)[C@H]2O)[C@@H]2[C@@H](C)[C@@H](O)C[C@H]12 [Loganin] | 195.65 |  | 
25 | OC[C@H]1O[C@H](O[C@H]2[C@H](O)[C@@H](O)[C@@H](O[C@H]3[C@H](O)[C@@H](O)[C@@H](O[C@H]4[C@H](O)[C@@H](O)[C@@H](O[C@H]5[C@H](O)[C@@H](O)[C@@H](O[C@H]6[C@H](O)[C@@H](O)C(O)O[C@@H]6CO)O[C@@H]5CO)O[C@@H]4CO)O[C@@H]3CO)O[C@@H]2CO)[C@H](O)[C@@H](O)[C@@H]1O (stereo partly specified) [Maltohexaose] | 279.7 |  | 
26 | OC[C@H]1O[C@H](O[C@H]2[C@H](O)[C@@H](O)[C@@H](O[C@H]3[C@H](O)[C@@H](O)[C@@H](O[C@H]4[C@H](O)[C@@H](O)[C@@H](O)O[C@@H]4CO)O[C@@H]3CO)O[C@@H]2CO)[C@H](O)[C@@H](O)[C@@H]1O [Maltotetraose] | 230.47 |  | 
27 | OC[C@H]1O[C@@H](O[C@H]2[C@H](O)[C@H](O)[C@H](O[C@H]3[C@H](O)[C@H](O)[C@H](O[C@H]4[C@H](O)[C@H](O)[C@H](O[C@H]5[C@H](O)[C@H](O)[C@H](O[C@H]6[C@H](O)[C@H](O)C(O)O[C@@H]6CO)O[C@@H]5CO)O[C@@H]4CO)O[C@@H]3CO)O[C@@H]2CO)[C@@H](O)[C@@H](O)[C@@H]1O (stereo partly specified) [Mannohexaose] | 281.7 |  | 
28 | CCCCC/C=C\C/C=C\CCCCCCCC(=O)OC [Methyl Linoleate] |  | 187.2 | 
29 | C[C@@](O)(CCO)CC(=O)O [Mevalonic Acid] | 137.7 |  | 
30 | CC1(O)CCOC(=O)C1 (stereo unspecified) [Mevalonolactone] | 143.67 |  | 
31 | C=CCc1cc(OC)c2c(c1)OCO2 [Myristicin] |  | 141.69 | 
32 | CC(=O)Nc1ccc(S(=O)(=O)Nc2cc(C)on2)cc1 [N-Acetyl Sulfamethoxazole] | 178.52 | 171.45 | 
33 | CN[C@@H](CCC(=O)O)C(=O)O [N-Methyl-L-glutamate] |  | 133.71 | 
34 | c1ccc2ccccc2c1 [Naphthalene] |  | 120.28 | 
35 | NC(=O)c1ccc[n+]([C@@H]2O[C@H](COP(=O)(O)OP(=O)(O)OC[C@H]3O[C@@H](n4cnc5c(N)ncnc54)[C@H](O)[C@@H]3O)[C@@H](O)[C@H]2O)c1 [Nicotinamide Adenine Dinucleotide (NAD+)] |  | 241.93 | 
36 | CCCCCCCC/C=C\CCCCCCCC(=O)OC(CC(=O)[O-])C[N+](C)(C)C (stereo unspecified) [Oleoylcarnitine] | 228.6 | 218.73 | 
37 | O=C(O)CC(=O)C(=O)O [Oxaloacetic Acid] |  | 139.45 | 
38 | CCCCCCCCCCCCCCCC(=O)O[C@H](COC(=O)CCCCCCCCCCC)COP(=O)(O)OC[C@H](N)C(=O)O [PS(14:0/14:0)] | 247.83 |  | 

Row | Structure (SMILES) | collision cross section (N2) ([2]; [M+Na]+) [Å²] | collision cross section (N2) ([2]; [M+H]+) [Å²] | also measured
39 | CCCCCCCCCCCCCCCC(=O)OC(CC(=O)[O-])C[N+](C)(C)C (stereo unspecified) [Palmitoylcarnitine] | 230.37 | 216.1 | 
40 | Cn1c(=O)[nH]c2ncn(C)c2c1=O [Paraxanthine] |  | 135.63 | 
41 | CCC(CC)Nc1c([N+](=O)[O-])cc(C)c(C)c1[N+](=O)[O-] [Pendimethalin] | 187.77 | 162.6 | 
42 | Nc1c(Cl)c(Cl)nc(C(=O)O)c1Cl [Picloram] | 156.37 | 142.83 | 
43 | c1cn[nH]c1 [Pyrazole] |  | 125.47 | 
44 | Cc1ncc(COP(=O)(O)O)c(C=O)c1O [Pyridoxal 5'-Phosphate] | 165.05 | 154.76 | 
45 | O=P(O)(O)OP(=O)(O)O [Pyrophosphoric Acid] | 145.58 |  | 
46 | O=C(O)C1(O)C[C@@H](O)C(O)[C@H](O)C1 (stereo partly specified) [Quinic Acid] | 153.72 | 146.35 | 
47 | CC/C=C\C[C@H](O)[C@H](O)/C=C/C=C/C=C\C=C\[C@@H](O)C/C=C\CCC(=O)O [Resolvin D2] | 200.6 |  | 
48 | CCCCCCCCCCCCC=CC[C@@H](O)[C@H](COP(=O)([O-])OCC[N+](C)(C)C)NC(=O)CCCCCCCCCCCCCCCC [SM(d18:1/17:0)] | 291.89 | 290.12 | 
49 | O=C[C@H](O[C@@H]1O[C@H](CO)[C@@H](O)[C@H](O)[C@H]1O)[C@@H](O)[C@H](O)[C@H](O)CO [Sophorose] | 183.57 |  | 
50 | CCNc1nc(NC(C)(C)C)nc(SC)n1 [Terbutryn] |  | 161.23 | 
51 | CC/C=C\C[C@H](O)/C=C/[C@H]1OC(O)C[C@H](O)[C@@H]1C/C=C\CCCC(=O)O (stereo partly specified) [Thromboxane B3] | 197.33 |  | 
52 | C/C=C(\C)C(=O)NCC(=O)O [Tiglyl Glycine] | 146.68 |  | 
53 | O=C(O)[C@@H]1C[C@@H](O)CN1 [Trans-4-Hydroxy-L-proline] |  | 130.23 | 
54 | O=C(O)/C=C(\CC(=O)O)C(=O)O [Trans-Aconitic Acid] | 149.13 | 153.02 | 
55 | O=c1[nH]c(=O)c2[nH]c(=O)[nH]c2[nH]1 [Uric Acid] | 143.5 | 131 | 
56 | OC1OC[C@@H](O[C@@H]2OC[C@@H](O)[C@H](O)[C@H]2O)[C@H](O)[C@H]1O (stereo partly specified) [Xylobiose] | 167.4 |  | 
57 | C[N+](C)(C)CCOP(=O)([O-])OC[C@H](O)CO [sn-Glycero-3-phosphocholine] | 161.8 | 157.17 | 

Reference: the C3SDB collision cross section collection
